{
  "source": "paper PMC12916490",
  "about": "(Molecular Psychiatry, 2025)",
  "biological_target": "h5-HT2A (Homo sapiens, UniProt P28223)",
  "sequence (P28223 whole entry, looked up)": "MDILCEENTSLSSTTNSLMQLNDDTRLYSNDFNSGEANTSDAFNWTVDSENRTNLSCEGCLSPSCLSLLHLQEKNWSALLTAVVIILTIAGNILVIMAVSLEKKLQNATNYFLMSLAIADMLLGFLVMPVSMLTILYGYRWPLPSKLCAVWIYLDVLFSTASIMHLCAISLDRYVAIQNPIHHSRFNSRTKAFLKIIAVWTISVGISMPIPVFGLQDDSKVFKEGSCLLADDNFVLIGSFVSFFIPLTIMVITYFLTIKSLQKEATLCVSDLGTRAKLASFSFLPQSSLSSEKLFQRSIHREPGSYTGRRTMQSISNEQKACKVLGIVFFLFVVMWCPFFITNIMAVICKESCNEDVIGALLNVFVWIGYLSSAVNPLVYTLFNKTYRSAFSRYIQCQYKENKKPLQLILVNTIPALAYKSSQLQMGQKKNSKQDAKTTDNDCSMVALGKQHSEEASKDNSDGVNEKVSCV",
  "experiment": "Arachidonic acid release (Gαi/o,12/13 marker), h5-HT2A",
  "assay_type": "cell-based",
  "design": "expressed in transfected cells; host or cells: HEK 293 cells (membrane preparation)",
  "settings": "for Emax: read-out: Arachidonic acid release Emax h5-HT2A (95% CI)",
  "description": "Activation of h5-HT2A, h5-HT2B, and h5-HT2C receptors was examined by measuring the accumulation of inositol monophosphate (IP1) as a marker for Gαq-mediated signaling. For h5-HT2A, additional assays measured β-arrestin 2 recruitment and arachidonic acid release, the latter serving as a marker of Gαi/o,12/13 activation. The methodology is described in detail in the Supplementary information.\nThe IC50 values from the radioligand binding assays were determined by nonlinear regression, using three independent concentration-response curves fitted to a one-site model. The Cheng-Prusoff equation was used to calculate Kᵢ values for the competing ligands. EC50 values were determined by applying nonlinear regression to concentration-response curves. Bias factors (β) were calculated based on the relative intrinsic activity approach. More detailed information can be found in the Supplementary information. Mean values for total number of HTR, change in body temperature from pre to post session (Δ°C), and total distance traveled (cm) for each drug dose were compared (p < 0.05) via Welch’s ANOVA with Dunnett’s T3 post test, comparing all doses to respective vehicle controls (0 mg/kg). Welch’s ANOVA with Dunnett’s T3 post test was also used to compare drug concentrations, but the data were compared to DOM in this case. Dose–response relationships for HTR and locomotor activities were plotted using bell-shaped curve fits, while temperature change data were plotted using four-parameter non-linear regression curve fits. The ascending phase of the HTR curve for each drug was used to determine ED50 potency values from four parameter non-linear regression fits. For combined DOM and DOAM administration, the plasma, brain tissue, and brain dialysate drug concentrations were compared using paired t-tests (p < 0.05). […]\nthe β-arrestin 2 molecule in the NanoBiT system) were seeded at a density of 50,000 cells per well in poly - D-lysine-coated 96-well plates in medium containing 10% dialyzed FBS. The plate was then incubated at […]\nThe following day, the cells were washed twice with 150 µL HBSS, and 100 µL HBSS was subsequently added to each well. Thereafter, 25 µL of substrate (1 :20 diluted in buffer) was added, and […]\nagonist solutions was added, and the signal was monitored for 2 h. Drug dilutions in HBSS were made from 10 mM stock solutions in DMSO , yielding concentration ranges from 10 µM to 10 pM. All concentrations were run in duplicate and included the appropriate solvent controls. Efficacy was normalized to 5 -HT […]\n3.2.3 Arachidonic acid release\nArachidonic acid release was assessed as a marker for Gαi/o,12/13 mediated signaling.\nNIH/3T3 cells stably expressing the 5 -HT2A receptor were seeded at a density of 75,000 cells per well in a poly-D-lysine-coated 48-well plate. The following day, the cells were labeled with 300 μL [ 3H]arachidonic […]\nThereafter, the cells were washed 3 times for\n(10 mM) of test substances were prepared in DMSO. The final dilution series of test substances dissolved […]\nThereafter, the plate was put on ice, and 400 μL incubation supernatant per well was transferred int o scintillation vials containing scintillation fluid (Ultimagold, Perkin Elmer, Schwerzenbach, Switzerland). The remaining supernatant was removed, and the cells were lysed with 1% sodium dodecyl sulfate lysis buffer. The obtained cell lysate was transferred into scintillation vials containing scintillation fluid. Radioactivity was measured on a liquid scintillation counter (Packard 1900 TR Tri-Carb Liquid Scintillation Counter; Packard Instrument Company). Efficacy was normalized to 5-HT activity.\n3.2.4 Calculation of bias factors […]\nusing 5-HT as the reference agonist.\nRApathway = EC50, i = EC50, ref×Emax,i […]",
  "note": "pEC50: −log10 of the molar value.",
  "data": [
    {"compound": "CCc1cc(OC)c(CC(C)N)cc1OC", "note": "(stereo not shown) [DOET, 4-ethyl-2,5-dimethoxyamphetamine]", "values": [
      {"measurement": "Agonist type for Gαi/o,12/13-mediated signaling at the 5-HT2A receptor", "result": "high efficacy partial agonists"},
      {"measurement": "pEC50", "result": 8.82},
      {"measurement": "Emax", "result": 88, "unit": "%"}
    ]},
    {"compound": "CCCCc1cc(OC)c(CC(C)N)cc1OC", "note": "(stereo not shown) [DOBU, 4-butyl-2,5-dimethoxyamphetamine]", "values": [
      {"measurement": "Agonist type for Gαi/o,12/13-mediated signaling at the 5-HT2A receptor", "result": "high efficacy partial agonists"},
      {"measurement": "pEC50", "result": 8.70},
      {"measurement": "Emax", "result": 74, "unit": "%"}
    ]},
    {"compound": "CCCc1cc(OC)c(CC(C)N)cc1OC.Cl", "note": "(stereo not shown) [DOPR, 4-propyl-2,5-dimethoxyamphetamine hydrochloride]", "values": [
      {"measurement": "pEC50", "result": 9.07},
      {"measurement": "Emax", "result": 117, "unit": "%"}
    ]},
    {"compound": "COc1ccc(OC)c(CC(C)N)c1.Cl", "note": "(stereo not shown) [2,5-DMA, 2,5-Dimethoxyamphetamine hydrochloride]", "values": [
      {"measurement": "Agonist type for Gαi/o,12/13-mediated signaling at the 5-HT2A receptor", "result": "high efficacy partial agonists"},
      {"measurement": "Emax", "result": 59, "unit": "%"}
    ]},
    {"compound": "COc1cc(CC(C)N)c(OC)cc1C", "note": "(stereo not shown) [DOM, 4-methyl-2,5-dimethoxyamphetamine]", "values": [
      {"measurement": "Agonist type for Gαi/o,12/13-mediated signaling at the 5-HT2A receptor", "result": "high efficacy partial agonists"},
      {"measurement": "pEC50", "result": 8.43},
      {"measurement": "Emax", "result": 75, "unit": "%"}
    ]},
    {"compound": "CCCCCc1cc(OC)c(CC(C)N)cc1OC", "note": "(stereo not shown) [DOAM, 4-amyl-2,5-dimethoxyamphetamine]", "values": [
      {"measurement": "Agonist type for Gαi/o,12/13-mediated signaling at the 5-HT2A receptor", "result": "high efficacy partial agonists"},
      {"measurement": "pEC50", "result": 8.62},
      {"measurement": "Emax", "result": 91, "unit": "%"}
    ]}
  ]
}
